The source of these data is US9862713B2, “Substituted bicyclic heteroaryl compounds as RXR agonists” (CONNEXIOS LIFE SCIENCES PVT. LTD., priority 2014, dated 2018).

The test system of this experiment is hRXR α, β, or γ. Nature of the experiment: Transactivation assay (RARE-Luc dual luciferase reporter in HEK-293 cells), activity relative to LG268. Format: cell-based, human. The conditions noted are these: compound at 1 µM, 24 h; luciferase activity expressed relative to LG268. The procedure:
HEK-293 cells (ATCC) were seeded one day prior to transfection. For assessing EC50 of activation of RXR isoforms 2 μg of hRXR α, β, or γ (OriGENE, USA) over-expressing vector, 1 μg of plasmid expressing firefly luciferase under RARE element (RARE-Luc) and 25 ng of renilla luciferase vector (QIAGEN, USA) were co-transfected using lipofectamine reagent. Post 24 h of transfection, cells were treated with different concentrations of RXR agonists (100 nM, 300 nM and 1 uM) for 24 h followed by estimation of luciferase activity using Dual Luciferase Reporter Assay System (Promega). Luciferase activity was normalized to that of renilla luciferase. The activities of the RXR compounds were expressed relative to LG268, a known RXR agonist.
On the technique in general: A reporter such as luciferase makes a cellular process visible.

With `C=C(c1ccc(C(=O)O)cc1)c1sc2c(c1C)C(C)(C)CCC2(C)C` [Compound 1, 4-[1-(3,4,4,7,7-Pentamethyl-4,5,6,7-tetrahydro-1-benzothiophen-2-yl)ethenyl]benzoic acid], the “Activity at 1 µM” value was “***** (>1)”.

As to `Cc1c(C2(c3ccc(C(=O)O)cc3)CC2)sc2c1C(C)(C)CCC2(C)C` [Compound 2, 4-[1-(3,4,4,7,7-pentamethyl-4,5,6,7-tetrahydro-1-benzothiophen-2-yl)cyclopropyl]benzoic acid], the “Activity at 1 µM” value is reported as “***** (>1)”. Regarding `Cc1c(/C(=N/O)c2ccc(C(=O)O)cc2)sc2c1C(C)(C)CCC2(C)C` [Compound 3, 4-[(E)-(Hydroxyimino) (3,4,4,7,7-pentamethyl-4,5,6,7-tetrahydro-1-benzothiophen-2-yl)methyl]benzoic acid], the “Activity at 1 µM” value is given as “***** (>1)”. The value for `CO/N=C(\c1ccc(C(=O)O)cc1)c1sc2c(c1C)C(C)(C)CCC2(C)C` [Compound 4, 4-[(E,Z)-(Methoxyimino) (3,4,4,7,7-pentamethyl-4,5,6,7-tetrahydro-1-benzothiophen-2-yl)methyl]benzoic acid] was “**** (>0.9 to <1)”; that for `Cc1c(C(=O)c2ccc(C(=O)O)cn2)sc2c1C(C)(C)CCC2(C)C` [Compound 5, 6-[(3,4,4,7,7-Pentamethyl-4,5,6,7-tetrahydro-1-benzothiophen-2-yl)carbonyl]pyridine-3-carboxylic acid] was “** (>0.7 and <0.8)”; that for `C=C(c1ccc(C(=O)O)cn1)c1sc2c(c1C)C(C)(C)CCC2(C)C` [Compound 6, 6-[1-(3,4,4,7,7-Pentamethyl-4,5,6,7-tetrahydro-1-benzothiophen-2-yl)ethenyl]pyridine-3-carboxylic acid] was “*** (>0.8 and <0.9)”. In the case of `Cc1c(C2(c3ccc(C(=O)O)cn3)CC2)sc2c1C(C)(C)CCC2(C)C` [Compound 7, 6-[1-(3,4,4,7,7-Pentamethyl-4,5,6,7-tetrahydro-1-benzothiophen-2-yl)cyclopropyl]pyridine-3-carboxylic acid], the “Activity at 1 µM” value is reported as “***** (>1)”.

For the molecule `Cc1c(N(C)c2ccc(C(=O)O)cc2)sc2c1C(C)(C)CCC2(C)C` [Compound 8, 4-[Methyl(3,4,4,7,7-pentamethyl-4,5,6,7-tetrahydro-1-benzothiophen-2-yl)amino]benzoic acid], the “Activity at 1 µM” value was “***** (>1)”.

Regarding `CCN(c1ccc(C(=O)O)cc1)c1sc2c(c1C)C(C)(C)CCC2(C)C` [Compound 9, 4-[Ethyl(3,4,4,7,7-pentamethyl-4,5,6,7-tetrahydro-1-benzothiophen-2-yl)amino]benzoic acid], the “Activity at 1 µM” value is “*** (>0.8 and <0.9)”.

Take `Cc1c(N(c2ccc(C(=O)O)cc2)C2CC2)sc2c1C(C)(C)CCC2(C)C` [Compound 10, 4-[Cyclopropyl(3,4,4,7,7-pentamethyl-4,5,6,7-tetrahydro-1-benzothiophen-2-yl)amino]benzoic acid]: the “Activity at 1 µM” value is on record as “***** (>1)”. The same measure for `Cc1c(N(CC2CC2)c2ccc(C(=O)O)cc2)sc2c1C(C)(C)CCC2(C)C` [Compound 11, 4-[(Cyclopropylmethyl) (3,4,4,7,7-pentamethyl-4,5,6,7-tetrahydro-1-benzothiophen-2-yl)amino]benzoic acid]: “**** (>0.9 to <1)”. The same measure for `Cc1c(N(c2ccc(C(=O)O)cc2)C(C)C)sc2c1C(C)(C)CCC2(C)C` [Compound 13, 4-[(3,4,4,7,7-Pentamethyl-4,5,6,7-tetrahydro-1-benzothiophen-2-yl) (propan-2-yl)amino]benzoic acid]: “** (>0.7 and <0.8)”; for `Cc1c(N(c2ccc(C(=O)O)cc2)S(C)(=O)=O)sc2c1C(C)(C)CCC2(C)C` [Compound 14, 4-[(Methylsulfonyl) (3,4,4,7,7-pentamethyl-4,5,6,7-tetrahydro-1-benzothiophen-2-yl)amino]benzoic acid]: “**** (>0.9 to <1)”.

As to `COc1ccc(/C=C/C(=O)O)cc1-c1sc2c(c1C)C(C)(C)CCC2(C)C` [Compound 15, (2E)-3-[4-Methoxy-3-(3,4,4,7,7-pentamethyl-4,5,6,7-tetrahydro-1-benzothiophen-2-yl)phenyl]prop-2-enoic acid], the “Activity at 1 µM” value was “** (>0.7 and <0.8)”. In the case of `COc1ccc(C2CC2C(=O)O)cc1-c1sc2c(c1C)C(C)(C)CCC2(C)C` (stereo not drawn) [Compound 16, 2-[4-Methoxy-3-(3,4,4,7,7-pentamethyl-4,5,6,7-tetrahydro-1-benzothiophen-2-yl)phenyl]cyclopropanecarboxylic acid], the “Activity at 1 µM” value is on record as “* (<0.7)”. The value for `Cc1c(N(C)c2ccc(C(=O)O)cn2)sc2c1C(C)(C)CCC2(C)C` [Compound 17, 6-[Methyl(3,4,4,7,7-pentamethyl-4,5,6,7-tetrahydro-1-benzothiophen-2-yl)amino]pyridine-3-carboxylic acid] was “***** (>1)”. As for `CCN(c1ccc(C(=O)O)cn1)c1sc2c(c1C)C(C)(C)CCC2(C)C` [Compound 18, 6-[Ethyl(3,4,4,7,7-pentamethyl-4,5,6,7-tetrahydro-1-benzothiophen-2-yl)amino]pyridine-3-carboxylic acid], the “Activity at 1 µM” value is “***** (>1)”. Turning to `Cc1c(N(c2ccc(C(=O)O)cn2)C2CC2)sc2c1C(C)(C)CCC2(C)C` [Compound 19, 6-[Cyclopropyl(3,4,4,7,7-pentamethyl-4,5,6,7-tetrahydro-1-benzothiophen-2-yl)amino]pyridine-3-carboxylic acid], the “Activity at 1 µM” value is on record as “***** (>1)”. The same measure for `Cc1c(N(CC2CC2)c2ccc(C(=O)O)cn2)sc2c1C(C)(C)CCC2(C)C` [Compound 20, 6-[(Cyclopropylmethyl) (3,4,4,7,7-pentamethyl-4,5,6,7-tetrahydro-1-benzothiophen-2-yl)amino]pyridine-3-carboxylic acid]: “***** (>1)”; for `Cc1c(N(c2ccc(C(=O)O)cn2)C(C)C)sc2c1C(C)(C)CCC2(C)C` [Compound 21, 6-[(3,4,4,7,7-Pentamethyl-4,5,6,7-tetrahydro-1-benzothiophen-2-yl) (propan-2-yl)amino]pyridine-3-carboxylic acid]: “***** (>1)”.

For `Cc1c(N(c2ccc(C(=O)O)cn2)S(C)(=O)=O)sc2c1C(C)(C)CCC2(C)C` [Compound 22, 6-[(Methylsulfonyl) (3,4,4,7,7-pentamethyl-4,5,6,7-tetrahydro-1-benzothiophen-2-yl)amino]pyridine-3-carboxylic acid], the “Activity at 1 µM” value is “***** (>1)”. As for `Cc1c(N(C)c2ncc(C(=O)O)cn2)sc2c1C(C)(C)CCC2(C)C` [Compound 23, 2-[Methyl(3,4,4,7,7-pentamethyl-4,5,6,7-tetrahydro-1-benzothiophen-2-yl)amino]pyrimidine-5-carboxylic acid], the “Activity at 1 µM” value was “*** (>0.8 and <0.9)”. The value for `Cc1c(N(c2ncc(C(=O)O)cn2)C2CC2)sc2c1C(C)(C)CCC2(C)C` [Compound 24, 2-[Cyclopropyl(3,4,4,7,7-pentamethyl-4,5,6,7-tetrahydro-1-benzothiophen-2-yl)amino]pyrimidine-5-carboxylic acid] was “*** (>0.8 and <0.9)”.

`Cc1c(NC(=O)c2ccc(C(=O)O)cc2)sc2c1C(C)(C)CCC2(C)C` [Compound 25, 4-[(3,4,4,7,7-Pentamethyl-4,5,6,7-tetrahydro-1-benzothiophen-2-yl)carbamoyl]benzoic acid]: the “Activity at 1 µM” value was “* (<0.7)”.
